What all share (assay): DTP human tumour cell line panel, 48 h
The subject of test [1] is SNB-19.
The test system of test [2] is SK-MEL-28.
For test [3], the system named is HCC 2998.
For test [4], the system named is U-251.
The subject of test [5] is 786-0.
For test [6], the system named is SF-295.
In test [7] the test system is OVCAR-3.
Test [8] relates to UACC-257.
Test [9] relates to OVCAR-4.
The subject of test [10] is UACC-62.
Test [11] relates to SN12C.
Test [12] deals with KM12.
Test [13] relates to NCI-H522.
The test system of test [14] is HOP-92.
Test [15] concerns EKVX.
Test [16] concerns HCT-116.

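Exposure lasted 48 hours, with cells grown in 96-well plates and compounds tested at five concentrations. GI50 marks 50% less growth.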 Activity calls are given as the source filed them. Rule as the data show it: active = GI50 up to about 1.1 µM and inactive = higher.

For `CC(NS(=O)(=O)c1ccc([N+](=O)[O-])cc1)C(=O)O` (stereo not drawn), the GI50 in [1], in test [2], in test [3], in test [4], in test [5] and in [6] was > 100 µM (inactive) throughout. The GI50 in [7], in test [8], in test [9], in test [10], in [11] and in test [12] was > 100 µM (inactive) throughout. For the same compound, the GI50 in test [13], in test [14] and in test [15] was > 100 µM (inactive) in each case.
As to `CC(=O)N1CCN(C=S)CC1`, the GI50 in test [16], in test [1], in test [2], in [3], in [4] and in test [5] was > 100 µM (inactive) each time. In addition, the GI50 in test [6], in test [7], in test [8], in test [9], in test [10] and in [11] was > 100 µM (inactive) in each case. Further, the GI50 in [12], in test [13], in test [14] and in [15] was > 100 µM (inactive) throughout.
With `CC(=O)NNc1nc(C)c(C(=O)NNC(=O)C(=O)Nc2c(C)cccc2C)s1`, the GI50 is 40.9 µM (inactive) in test [16]; 61 µM (inactive) in [1]; 76.6 µM (inactive) in [2]; 95.9 µM (inactive) in test [3]; 43.9 µM (inactive) in [4]; 50.8 µM (inactive) in test [5]. The GI50 in test [6] is 40.6 µM (inactive); in test [7], 26.4 µM (inactive); in test [8] it was 36.1 µM (inactive); in [9] it was 41.1 µM (inactive); in test [10], 33.3 µM (inactive); in test [11], > 100 µM (inactive). The GI50 was 35.1 µM (inactive) in [12], 16.1 µM (inactive) in [13], 40.4 µM (inactive) in test [14] and 37 µM (inactive) in test [15].
Regarding `O=C1[C@@H]2C3C=CC([C@H]4C(=O)N(CO)C(=O)[C@@H]34)[C@@H]2C(=O)N1CO`, the GI50 in test [16] was 34.9 µM (inactive); in test [1], > 100 µM (inactive); in test [2], > 63.5 µM (inactive); in [3], > 70 µM (inactive); in [4] it was > 56.2 µM (inactive); in test [5] it was 41.8 µM (inactive). Besides, the GI50 in test [6] was > 100 µM (inactive); in test [7], > 100 µM (inactive); in test [8], > 100 µM (inactive); in [9], > 75.5 µM (inactive); in [10], > 76.2 µM (inactive); in test [11] it was > 57.5 µM (inactive). In addition, the GI50 was > 64.7 µM (inactive) in test [12], 34.8 µM (inactive) in [13], > 78.2 µM (inactive) in test [14] and > 100 µM (inactive) in test [15].
For `O=C1CC(O)C=C1Nc1ccc(Cl)cc1` (stereo not drawn), the GI50 in [16] is 30.6 µM (inactive); in test [1], 80.7 µM (inactive); in [2], 56.2 µM (inactive); in test [3], 12.1 µM (inactive); in test [4] it was 49.3 µM (inactive); in test [5], 58.2 µM (inactive). The GI50 is 33.1 µM (inactive) in test [6]; 71.6 µM (inactive) in test [7]; 52.4 µM (inactive) in test [8]; 60.1 µM (inactive) in [9]; 0.879 µM (active) in test [10]; 62.5 µM (inactive) in test [11]. In addition, the GI50 in [12] was 13.4 µM (inactive); in test [13] it was 11.2 µM (inactive); in test [14], 49.1 µM (inactive); in [15], 27.7 µM (inactive).
In the case of `COc1ccc(/C=C/c2cc(OC)c(OC)c(OC)c2)cc1OC`, the GI50 in test [16] was > 100 µM (inactive); in test [1], > 100 µM (inactive); in test [2] it was 55.6 µM (inactive); in test [3], > 100 µM (inactive); in [4], > 100 µM (inactive); in [5] it was > 76.9 µM (inactive). For the same compound, the GI50 was 65.2 µM (inactive) in test [6]; > 100 µM (inactive) in [7]; > 100 µM (inactive) in [8]; > 100 µM (inactive) in test [9]; > 80.7 µM (inactive) in [10]; > 100 µM (inactive) in test [11]. The GI50 was > 100 µM (inactive) in [12], 68.5 µM (inactive) in [13], 80.5 µM (inactive) in test [14] and > 100 µM (inactive) in test [15].
Take `Clc1ccc(C2=Nc3ccccc3SC(c3ccc(Cl)c(Cl)c3)C2)c(Cl)c1` (stereo not drawn): the GI50 was 11.4 µM (inactive) in test [16]; 20.7 µM (inactive) in test [1]; 15.7 µM (inactive) in test [2]; 14.6 µM (inactive) in [3]; 17.8 µM (inactive) in test [4]; 14.5 µM (inactive) in test [5]. In addition, the GI50 in [6] was 12.4 µM (inactive); in [7] it was 13.3 µM (inactive); in test [8], 19.5 µM (inactive); in test [9] it was 17.1 µM (inactive); in test [10] it was 15.2 µM (inactive); in test [11], 17.2 µM (inactive). The GI50 is 7.08 µM (inactive) in [12], 13.5 µM (inactive) in test [13], 13.8 µM (inactive) in test [14] and 16.4 µM (inactive) in test [15].
In the case of `CCCN(CCC)C(=O)c1c([N+](=O)[O-])cc(C(F)(F)F)cc1[N+](=O)[O-]`, the GI50 in test [16] was 30.5 µM (inactive); in [1] it was 68.4 µM (inactive); in test [2] it was > 100 µM (inactive); in test [4] it was 64.9 µM (inactive); in [5] it was 68.2 µM (inactive); in [6], 34.4 µM (inactive). Also, the GI50 in test [7] was 10.7 µM (inactive); in [8], > 10 µM (inactive); in [9], 14.9 µM (inactive); in test [10], 17.9 µM (inactive); in [11], 40.9 µM (inactive); in [12] it was 46.1 µM (inactive). The GI50 in test [13] was 23.2 µM (inactive); in [14], 34.5 µM (inactive); in test [15] it was 52.5 µM (inactive).
Regarding `CCc1cccc(NC(=O)c2cc(/C=C/c3ccccc3)nc(S)n2)c1`, the GI50 in test [16], in [1], in test [2], in test [3], in [4] and in [5] was > 100 µM (inactive) in each case. The GI50 in [6], in [7], in [8], in test [9], in test [10] and in test [11] was > 100 µM (inactive) throughout. For the same compound, the GI50 in [12], in [13], in test [14] and in test [15] was > 100 µM (inactive) in each case.
With `Clc1ccc(SCCCCCCCCCCSc2ccc(Cl)cc2)cc1`, the GI50 in test [16] is > 100 µM (inactive); in test [1] it was > 100 µM (inactive); in test [2], > 100 µM (inactive); in [3] it was > 46.1 µM (inactive); in test [4], > 57.4 µM (inactive); in [5], > 55.6 µM (inactive). Moreover, the GI50 was > 57.9 µM (inactive) in test [6]; > 56.8 µM (inactive) in test [7]; > 57 µM (inactive) in [8]; > 100 µM (inactive) in test [9]; > 100 µM (inactive) in test [10]; > 100 µM (inactive) in test [11]. Besides, the GI50 in test [12] is > 55.1 µM (inactive); in test [13], > 100 µM (inactive); in test [14] it was > 100 µM (inactive); in [15] it was > 70 µM (inactive).
As to `C[C@H]1C(=O)CC[C@]2(C)CCC(C(C)(C)O)CC12O` (stereo partly drawn), the GI50 in test [16], in test [1], in test [2], in test [3], in [4] and in test [5] was > 100 µM (inactive) each time. For the same compound, the GI50 in test [6], in test [7], in test [8], in test [9], in test [10] and in [11] was > 100 µM (inactive) in each case. In addition, the GI50 in [12], in test [13], in test [14] and in [15] was > 100 µM (inactive) each time.
Take `COc1ccc(C2=NC(CO)[C@H](c3ccccc3)O2)cc1OC` (stereo partly drawn): the GI50 in test [16], in test [1], in test [3], in [5], in test [6] and in test [7] was > 100 µM (inactive) in each case. For the same compound, the GI50 in test [8] is > 100 µM (inactive); in [9], > 100 µM (inactive); in test [10], 53.6 µM (inactive); in test [11], > 100 µM (inactive); in test [12], > 100 µM (inactive); in test [13] it was > 100 µM (inactive). Further, in [14], the GI50 was > 100 µM (inactive).
With `CC1(C)C(=NNC(=O)C[N+](C)(C)C)C(C)(C)C1=NNC(=O)C[N+](C)(C)C`, the GI50 in test [16], in [1], in test [2], in test [3], in test [4] and in test [5] was > 100 µM (inactive) throughout. Besides, the GI50 in [6], in test [7], in test [8], in test [9], in [10] and in test [11] was > 100 µM (inactive) in each case. For the same compound, the GI50 in test [12] was > 100 µM (inactive); in [13], 82.4 µM (inactive); in test [14] it was > 100 µM (inactive); in test [15], > 100 µM (inactive).

Broadly, the GI50 is the concentration giving 50% growth inhibition.

For the origin of these results see ChEMBL document CHEMBL1201862, “PubChem BioAssay data set” (2004).
